Source: PubChem BioAssay AID264 (DTP/NCI, 2004)
Values joined by “and” are separate entries in the source; they are usually repeats but may differ in a detail not shown here. Equal values may be shown once. Inconclusive results are not listed.

Test system: nude mice, LX-1 lung xenograft intrarenal, tumor weight T/C
Test: NCI In Vivo Anticancer Drug Screen. Data for tumor model Human Lung LX-1 Xenograft (intrarenal inoculation) in NU/NU Swiss (nude) mice
Settings: endpoint: mean tumor weight change, higher = larger tumour
Description: The antitumor activity of compounds was measured in mice bearing transplantable tumors. Survival or tumor size were measured and the results are expressed as the measurement made in the treated group (T) divided by the measurement made in the vehicle treated control group (C). The tumor model used in this assay is Human Lung LX-1 Xenograft (intrarenal inoculation) in NU/NU Swiss (nude) mice

[1] = dose: 37.5 mg/kg/injection, schedule: Q04DX003 (sc), vehicle: saline with Tween-80
[2] = dose: 75.0 mg/kg/injection, schedule: Q04DX003 (sc), vehicle: saline with Tween-80
[3] = dose: 150.0 mg/kg/injection, schedule: Q04DX003 (sc), vehicle: saline with Tween-80
[4] = dose: 300.0 mg/kg/injection, schedule: Q04DX003 (sc), vehicle: saline with Tween-80
[5] = dose: 1.0 mg/kg/injection, schedule: Q01DX010 (sc), vehicle: saline
[6] = dose: 200.0 mg/kg/injection, schedule: Q01DX010 (sc), vehicle: Klucel (hydroxypropylcellulose) (HPC)

SMILES: c1cc[c]([Sn][c]2ccccc2)cc1
- T/C (dose: 10.0 mg/kg/injection, schedule: Q01DX010 (sc), vehicle: saline): 78 % of control
- T/C (dose: 20.0 mg/kg/injection, schedule: Q01DX010 (sc), vehicle: saline): 54 % of control
- T/C (dose: 40.0 mg/kg/injection, schedule: Q01DX010 (sc), vehicle: saline): 81 % of control

SMILES: CN=S(=O)(OCCCCCOS(=O)(=NC)c1ccc(C)cc1)c1ccc(C)cc1 (stereo not given)
- T/C [1]: 72 % of control
- T/C [2]: 83 % of control
- T/C [3]: 88 % of control
- T/C [4]: 30 % of control

SMILES: COc1cccc2c1C(=O)c1c(O)c3c(c(O)c1C2=O)C[C@@](O)(C(=O)COC(=O)c1cccnc1)C[C@@H]3OC1CC(N)C(O)C(C)O1 (stereo not given in full)
- T/C (dose: 3.0 mg/kg/injection, schedule: Q04DX003 (sc), vehicle: saline): 120 % of control
- T/C (dose: 12.0 mg/kg/injection, schedule: Q04DX003 (sc), vehicle: saline): 75 % of control
- T/C (dose: 24.0 mg/kg/injection, schedule: Q04DX003 (sc), vehicle: saline): 83 % of control

SMILES: [Cl][Pt+2][Cl].[NH-]CC1(C[NH-])CCC1
- T/C (dose: 50.0 mg/kg/injection, schedule: Q04DX003 (sc), vehicle: suspension in saline): 121 % of control

SMILES: COC1CC(CC2CCC(C)C(C(C)C(=O)O)O2)OC2(OC(C)(C3CCC(C)(C4OC(C5OC(O)(CO)C(C)CC5C)CC4C)O3)CC2C)C1C (stereo not given)
- T/C (dose: 3.75 mg/kg/injection, schedule: Q04DX003 (sc), vehicle: Klucel (hydroxypropylcellulose) (HPC)): 110 % of control
- T/C (dose: 7.5 mg/kg/injection, schedule: Q04DX003 (sc), vehicle: Klucel (hydroxypropylcellulose) (HPC)): 102 % of control
- T/C (dose: 30.0 mg/kg/injection, schedule: Q04DX003 (sc), vehicle: Klucel (hydroxypropylcellulose) (HPC)): 108 % of control

SMILES: COC(=O)C[C@](O)(CCCC(C)(C)O)C(=O)O[C@@H]1C(OC)=C[C@]23CCCN2CCc2cc4c(cc2[C@H]13)OCO4
- T/C (dose: 0.5 mg/kg/injection, schedule: Q01DX010 (sc), vehicle: saline): 115 % of control
- T/C [5]: 61 % of control

SMILES: c1cc2n(n1)CCN2
- T/C (dose: 50.0 mg/kg/injection, schedule: Q01DX010 (sc), vehicle: saline): 90 % of control and 233 % of control
- T/C (dose: 100.0 mg/kg/injection, schedule: Q01DX010 (sc), vehicle: saline): 117 % of control and 124 % of control
- T/C (dose: 200.0 mg/kg/injection, schedule: Q01DX010 (sc), vehicle: saline): 35 % of control
- T/C (dose: 333.33 mg/kg/injection, schedule: Q04DX003 (ip), vehicle: saline): 67 % of control

SMILES: C(=N/NC1=NCCN1)/c1c2ccccc2c(/C=N\NC2=NCCN2)c2ccccc12
- T/C (dose: 18.75 mg/kg/injection, schedule: Q04DX003 (sc), vehicle: suspension in saline): 117 % of control
- T/C (dose: 75.0 mg/kg/injection, schedule: Q04DX003 (sc), vehicle: suspension in saline): 72 % of control
- T/C (dose: 150.0 mg/kg/injection, schedule: Q04DX003 (sc), vehicle: suspension in saline): 49 % of control

SMILES: O=C1C=C(C2OC(CO)C(O)C2O)C(=O)N1 (stereo not given)
- T/C (dose: 6.25 mg/kg/injection, schedule: Q01DX010 (sc), vehicle: saline): 37 % of control
- T/C (dose: 12.5 mg/kg/injection, schedule: Q01DX010 (sc), vehicle: saline): 46 % of control
- T/C (dose: 25.0 mg/kg/injection, schedule: Q01DX010 (sc), vehicle: saline): 66 % of control

SMILES: OC(CBr)C(O)C(O)C(O)CBr (stereo not given)
- T/C (dose: 15.0 mg/kg/injection, schedule: Q01DX010 (sc), vehicle: Klucel (hydroxypropylcellulose) (HPC)): 112 % of control
- T/C (dose: 60.0 mg/kg/injection, schedule: Q01DX010 (sc), vehicle: Klucel (hydroxypropylcellulose) (HPC)): 57 % of control
- T/C [6]: 89 % of control
- T/C (dose: 400.0 mg/kg/injection, schedule: Q01DX010 (sc), vehicle: Klucel (hydroxypropylcellulose) (HPC)): 96 % of control
- T/C (dose: 800.0 mg/kg/injection, schedule: Q01DX010 (sc), vehicle: Klucel (hydroxypropylcellulose) (HPC)): 115 % of control

SMILES: CCOC(OCC)C(=O)OCC(=O)[C@]1(O)Cc2c(O)c3c(c(O)c2[C@@H](OC2CC(N)C(O)C(C)O2)C1)C(=O)c1c(OC)cccc1C3=O (stereo not given in full)
- T/C (dose: 2.0 mg/kg/injection, schedule: Q01DX010 (sc), vehicle: water): 68 % of control
- T/C (dose: 4.0 mg/kg/injection, schedule: Q01DX010 (sc), vehicle: water): 27 % of control

SMILES: C/C(=C\c1ccccc1)[N+](=O)[O-]
- T/C (dose: 6.25 mg/kg/injection, schedule: Q01DX010 (sc), vehicle: Klucel (hydroxypropylcellulose) (HPC)): 60 % of control
- T/C (dose: 12.5 mg/kg/injection, schedule: Q01DX010 (sc), vehicle: Klucel (hydroxypropylcellulose) (HPC)): 56 % of control
- T/C (dose: 100.0 mg/kg/injection, schedule: Q01DX010 (sc), vehicle: Klucel (hydroxypropylcellulose) (HPC)): 159 % of control
- T/C [6]: 196 % of control

SMILES: CCOC(=O)Nc1cc2c(c(N)n1)N=C(c1ccc(Cl)cc1Cl)CN2
- T/C [1]: 82 % of control
- T/C [2]: 76 % of control
- T/C [3]: 64 % of control
- T/C [4]: 66 % of control

SMILES: CN1C(=O)NC(c2ccc(Cl)cc2)(c2ccc(Cl)cc2)C1=O
- T/C (dose: 50.0 mg/kg/injection, schedule: Q01DX010 (sc), vehicle: saline with Tween-80): 212 % of control
- T/C (dose: 100.0 mg/kg/injection, schedule: Q01DX010 (sc), vehicle: saline with Tween-80): 191 % of control
- T/C (dose: 400.0 mg/kg/injection, schedule: Q01DX010 (sc), vehicle: saline with Tween-80): 64 % of control

SMILES: CC[C@]1(O)C[C@H]2CN(CCc3c([nH]c4ccccc34)[C@@](C(=O)OC)(c3cc4c(cc3OC)N(C)[C@H]3[C@@](O)(C(=O)OC)[C@H](OC(C)=O)[C@]5(CC)C=CCN6CC[C@]43[C@@H]65)C2)C1
- T/C (dose: 0.25 mg/kg/injection, schedule: Q01DX010 (sc), vehicle: saline): 52 % of control
- T/C [5]: 68 % of control
- T/C (dose: 2.0 mg/kg/injection, schedule: Q01DX010 (sc), vehicle: saline): 28 % of control

SMILES: c1cc(NC2CCCCC2)ccc1CN1CCOCC1
- T/C (dose: 50.0 mg/kg/injection, schedule: Q01DX010 (sc), vehicle: saline + Tween-80 + alcohol): 38 % of control
- T/C (dose: 100.0 mg/kg/injection, schedule: Q01DX010 (sc), vehicle: saline + Tween-80 + alcohol): 74 % of control
- T/C (dose: 800.0 mg/kg/injection, schedule: Q01DX010 (sc), vehicle: saline + Tween-80 + alcohol): 84 % of control
- T/C (dose: 1600.0 mg/kg/injection, schedule: Q01DX010 (sc), vehicle: saline + Tween-80 + alcohol): 84 % of control

SMILES: O=C1NC(O)c2ccccc2O1 (stereo not given)
- T/C (dose: 300.0 mg/kg/injection, schedule: Q04DX003 (sc), vehicle: suspension in saline): 102 % of control
- T/C (dose: 600.0 mg/kg/injection, schedule: Q04DX003 (sc), vehicle: suspension in saline): 79 % of control
- T/C (dose: 1200.0 mg/kg/injection, schedule: Q04DX003 (sc), vehicle: suspension in saline): 63 % of control
- T/C (dose: 2400.0 mg/kg/injection, schedule: Q04DX003 (sc), vehicle: suspension in saline): 86 % of control

SMILES: Cc1nc(N)nc(N)c1-c1ccc(Cl)c(Cl)c1
- T/C (dose: 0.16 mg/kg/injection, schedule: Q01DX010 (sc), vehicle: saline): 85 % of control
- T/C (dose: 0.32 mg/kg/injection, schedule: Q01DX010 (sc), vehicle: saline): 111 % of control
- T/C (dose: 0.63 mg/kg/injection, schedule: Q01DX010 (sc), vehicle: saline): 115 % of control
- T/C (dose: 1.25 mg/kg/injection, schedule: Q01DX010 (sc), vehicle: saline): 106 % of control

SMILES: C1CCC2C[N-]CCC2C1.C1CCC2C[N-]CCC2C1.C1CCC2C[N-]CCC2C1.C1CCC2C[N-]CCC2C1.[Cl][Rh][Cl] (stereo not given)
- T/C (dose: 4.5 mg/kg/injection, schedule: Q04DX003 (sc), vehicle: saline with Tween-80): 64 % of control
- T/C (dose: 9.0 mg/kg/injection, schedule: Q04DX003 (sc), vehicle: saline with Tween-80): 89 % of control
- T/C (dose: 18.0 mg/kg/injection, schedule: Q04DX003 (sc), vehicle: saline with Tween-80): 63 % of control
- T/C (dose: 36.0 mg/kg/injection, schedule: Q04DX003 (sc), vehicle: saline with Tween-80): 60 % of control

SMILES: O=[N+]([O-])c1nccn1CC(O)CO (stereo not given)
- T/C (dose: 600.0 mg/kg/injection, schedule: Q04DX003 (sc), vehicle: saline): 91 % of control
- T/C (dose: 1200.0 mg/kg/injection, schedule: Q04DX003 (sc), vehicle: saline): 78 % of control
- T/C (dose: 2400.0 mg/kg/injection, schedule: Q04DX003 (sc), vehicle: saline): 108 % of control

SMILES: N#CCCN(C(=S)Nc1cccc(C(F)(F)F)c1)C1CCCCC1
- T/C (dose: 300.0 mg/kg/injection, schedule: Q04DX003 (sc), vehicle: Klucel (hydroxypropylcellulose) (HPC)): 60 % of control
- T/C (dose: 600.0 mg/kg/injection, schedule: Q04DX003 (sc), vehicle: Klucel (hydroxypropylcellulose) (HPC)): 55 % of control
- T/C (dose: 1200.0 mg/kg/injection, schedule: Q04DX003 (sc), vehicle: Klucel (hydroxypropylcellulose) (HPC)): 77 % of control
- T/C (dose: 2400.0 mg/kg/injection, schedule: Q04DX003 (sc), vehicle: Klucel (hydroxypropylcellulose) (HPC)): 80 % of control
